Assay results published in patent US6987092B1, “Indigoid bisindole derivatives” (Faustus Forschungs Cie. Translational Cancer Research GmbH, priority 1999, dated 2006).

Legend:
Assay type in all cases: cell-based
LXFL-529L cells = assay: Cellular uptake by LXFL-529L cells; conditions: 2 hours; for distribution particular: cellular organelles
Description: The amounts of the substances which were taken up by the cells are given depending on the concentration of the substance within the incubation medium. The time of incubation was 2 hours in all of the experiments. Furthermore, distribution between cytosol and the cellular organelles (particular) was measured and is given in the last two columns of Table 3.

[1] = system: cells of the large-cell lung carcinoma of the tumor line LXFL-529L; assay: Tumor cell growth inhibition, SRB-assay, LXFL-529L; conditions: 50% growth inhibition, three days incubation in serum-containing medium
[2] = system: cells of the mammary carcinoma cell line MCF-7; assay: Tumor cell growth inhibition, SRB-assay, MCF-7; conditions: 50% growth inhibition, three days incubation in serum-containing medium
[3] = concentration of incubation 10 μM
[4] = concentration of incubation 20 μM

Row | Compound | distribution particular (LXFL-529L cells; [3]) [%] | distribution particular (LXFL-529L cells; [4]) [%] | amount taken up (LXFL-529L cells; [3]) [μg/mg protein] | distribution cytosol (LXFL-529L cells; [3]) [%] | amount taken up (LXFL-529L cells; [4]) [μg/mg protein] | distribution cytosol (LXFL-529L cells; [4]) [%] | IC50 [1] [µM] | IC50 [2] [µM]
1 | O=C1Nc2ccccc2C1=C1Nc2ccccc2C1=NOCCO [Example 31] | 93 ± 7 | 93 ± 6 | 0.27 ± 0.06 | 7 ± 1 | 0.31 ± 0.07 | 7 ± 2 | 1.5 ± 0.4 | 2.5 ± 0.4
2 | CCc1ccc2c(c1)/C(=C1/Nc3ccccc3C1=O)C(=O)N2 [Example 2, 5-ethyl-indirubin] | 90 ± 6 | 95 ± 3 | 0.20 ± 0.05 | 10 ± 2 | 0.22 ± 0.07 | 5 ± 2 | 7 ± 0.2 | 7 ± 0.2
3 | O=C1Nc2ccccc2C1=C1Nc2ccccc2C1=NOCCNC[C@H](O)[C@@H](O)[C@H](O)[C@H](O)CO [Example 55, 3-{3′-[iminooxy-O-(N-(1-deoxy-glucitol)-2-amino-ethyl)]-(2′H3′H)indol-2′-ylidene}-(2H3H)indol-2-one] |  |  |  |  |  |  | 3 ± 0.6 | 3 ± 0.8
4 | NC(=O)CON=C1C(=C2C(=O)Nc3ccccc32)Nc2ccccc21 [Example 42, 2-{O-[2′-(2-oxo-(2H3H)indol-3-ylidene)-(2′H3′H)indol-3′-ylidene]-aminooxy}-acetamide] |  |  |  |  |  |  | 2 ± 0.3 | 6 ± 0.5
5 | COC(=O)CNS(=O)(=O)c1ccc2c(c1)C(=C1Nc3ccccc3C1=O)C(=O)N2 [Example 24, methyl-2-{[3-(3′-oxo-(2′H3′H)indol-2′-ylidene)-(2H3H)indol-2-one-5-yl]-sulfonylamino}-acetate] |  |  |  |  |  |  | 16 ± 0.8 | 25 ± 0.9
6 | O=C1Nc2ccccc2C1=C1Nc2ccccc2C1=NOCCN(CCO)CCO [Example 60, 3-{3′-[iminooxy-O-((N,N)-bis(hydroxyethyl)-2-amino-ethyl)]-(2′H3′H)indol-2′-ylidene}-(2H3H)indol-2-one] |  |  |  |  |  |  | 3 ± 0.4 | 4.5 ± 0.5
7 | CN(C)CCON=C1C(=C2C(=O)Nc3ccccc32)Nc2ccccc21 [Example 58, 3-{3′-[iminooxy-O-((N,N)-dimethyl-2-amino-ethyl)]-(2′H3′H)indol-2′-ylidene}-(2H3H)indol-2-one] |  |  |  |  |  |  | 5 ± 0.9 | 6.5 ± 1.1
8 | NCC(=O)Nc1ccc2c(c1)C(=C1Nc3ccccc3C1=NO)C(=O)N2 [Example 30, 2-amino-N-[3-(3′-hydroxyimino-(2H3H)indol-2′-ylidene)-(2H3H)-indol-2-one-5-yl]-acetamide] |  |  |  |  |  |  | 6 ± 0.8 | 6 ± 0.7
9 | O=C1Nc2ccc(CC(=O)N3CCOCC3)cc2C1=C1Nc2ccccc2C1=O [Example 7, 5-[2-(morpholin-4-yl)-ethan-2-one-1-yl]-indirubin] |  |  |  |  |  |  | 5.5 ± 0.7 | 7.5 ± 0.6
10 | indirubin-5-sulfonic acid-(morpholin-4-yl-amide) [Example 23] |  |  |  |  |  |  | 4.5 ± 0.8 | 3 ± 0.9
11 | O=C1Nc2ccc(S(=O)(=O)N3CCNCC3)cc2C1=C1Nc2ccccc2C1=O [Example 22, indirubin-5-sulfonic acid-(piperazin-1-yl-amide)] |  |  |  |  |  |  | 3 ± 0.5 | 2 ± 0.3
12 | O=C1Nc2ccccc2C1=C1Nc2ccccc2C1=NOCCCCCCCCCCN(CCO)CCO [Example 62] |  |  |  |  |  |  | 14 ± 1 | 13.5 ± 1.3
13 | NCCNc1ccc2c(c1)C(=C1Nc3ccccc3C1=O)C(=O)N2 [Example 20, 5-(2-amino-ethyl)-amino-indirubin] |  |  |  |  |  |  | 4 ± 0.3 | 3.5 ± 0.4
14 | 3-{3′-[iminooxy-O-(O^4-α-D-glucopyranosyl-2-D-glucopyranosylethyl)]-(2′H3′H)indol-2′-ylidene}-(2H3H)indol-2-one [Example 46] |  |  |  |  |  |  | 24 ± 1.3 | 7 ± 0.9
15 | CC(N)C(=O)Nc1ccc2c(c1)C(=C1Nc3ccccc3C1=O)C(=O)N2 (stereo not drawn) [Example 19, 2-amino-N-[3-(3′-oxo-(2′H3′H)indol-2′-ylidene)-(2H3H)indol-2-one-5-yl]-propionamide] |  |  |  |  |  |  | 7 ± 0.7 | 5 ± 0.6
